Results published in US6172061A, “Pharmaceutical composition for antagonizing CCR5 comprising anilide derivative” (Takeda Chemical Industries, Ltd., priority 1997, dated 2001).

Legend:
human CCR5 = target: T1, human CCR5 (Homo sapiens, UniProt P51681); assay: inhibition of [^125 I]-RANTES binding to CHO/CCR5 cells (CCR5 antagonistic activity); details: Test Compound 1 μM, 100 pM [^125 I]-RANTES, room temperature 30 minutes; for inhibition at 1 µM: read-out: Inhibition Rate (%) to CCR5 binding
T1 construct: expressed in transfected cells; host or cells: CHO-K1 (plasmid pCKR5 in pcDNA3.1, geneticin-selected CHO/CCR5 cells)
T1 sequence (P51681 whole entry): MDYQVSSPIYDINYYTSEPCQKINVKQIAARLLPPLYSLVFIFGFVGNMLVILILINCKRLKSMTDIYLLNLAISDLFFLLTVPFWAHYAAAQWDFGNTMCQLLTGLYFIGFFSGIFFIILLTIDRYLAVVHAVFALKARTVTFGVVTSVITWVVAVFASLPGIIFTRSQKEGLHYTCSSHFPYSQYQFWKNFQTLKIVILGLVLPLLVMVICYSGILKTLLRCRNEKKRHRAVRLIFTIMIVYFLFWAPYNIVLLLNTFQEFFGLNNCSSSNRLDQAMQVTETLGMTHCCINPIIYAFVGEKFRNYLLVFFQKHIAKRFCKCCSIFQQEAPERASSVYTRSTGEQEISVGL
Experimental: Cloning of CCR5 gene was carried out by PCR (polymerase chain reaction) from human spleen cDNA. With using 0.5 ng of spleen cDNA (Toyobo, QUICK-Clone cDNA) as template, PCR was performed in DNA Thermal Cycler 480 (Perkin-Elmer) (reaction conditions: 30 cycles of 95° C. for 1 minute, 60° C. for 1 minute, and 75° C. for 5 minutes) by adding primer set, 5'-CAGGATCCGATG […]-3' (25 pmol) and 5'-TCTAGATCACAAGCC CACAGATATTTCCTGCTCC-3' (25 pmol), which were designed referring to nucleotide sequence of CCR5 gene reported by Samson et al. (Biochemistry, 35(11), 3362-3367 (1996)) and by using TaKaRa EX Taq (Takara Shuzo). The resultant PCR product was subjected to agarose gel electrophoresis to collect about 1.0 kb DNA fragment, which was subjected to Original TA Cloning Kit (Funakoshi) to carry out cloning of CCR5 gene.
The plasmid obtained in the above (1) was digested with restriction enzymes XbaI (Takara Shuzo) and BamHI (Takara Shuzo) and subjected to agarose gel electrophoresis to collect about 1.0 kb DNA fragment. The DNA fragment was mixed with plasmid pcDNA3.1 (Funakoshi) for expression in animal cells, said plasmid being digested with XbaI and BamHI, and they were ligated with DNA Ligation Kit Ver.2 (Takara Shuzo). The resulting plasmid was subjected to transformation of competent cell of E. coli JM109 (Takara Shuzo) to obtain plasmid pCKR^5.
CHO-K1 cells were grown in 750 ml of tissue culture flask (Becton Dickinson) using Ham's F12 medium (Nihon Pharmaceutical) containing 10% fetal calf serum (Life Tech Oriental) and took off with 0.5 g/L trypsin-0.2 g/L EDTA (Life Tech Oriental). The cells were washed with PBS (Life Tech Oriental), centrifuged (1000 rpm, 5 minutes), and suspended in PBS. With using Gene Pulser (Bio-Rad Laboratories), DNA was introduced into the cells under the conditions shown below. That is, to the cuvette of 0.4 cm gap were added 8×10^6 cells and 10 μg of plasmid pCKR^5 for expression of human CCR5, and electroporation was carried out under 0.25 kV of voltage and 960 μF of capacitance. The cells were transferred into Ham's F12 medium (Nihon Pharmaceutical) containing 10% fetal calf serum, and cultivated for 24 hours. The cells were again took off and centrifuged, and suspended in Ham's F12 medium (Nihon Pharmaceutical) containing 10% fetal calf serum and 500 μg/ml of geneticin (Life Tech Oriental). The suspension was diluted to give 10^4 cells/ml of the suspension, which was inoculated on 96 well plate (Becton Dickinson) to give geneticin resistant cells. The resulting geneticin resistant cells were cultivated in 96 well plate (Becton Dickinson), and cells expressing CCR5 were selected from the geneticin resistant cells. That is, in assay buffer (Ham's F12 medium containing 0.5% BSA and 20 mM HEPES (Wako Pure Chemical, pH7.2) to which was added 200 pM of [^125 I]-RANTES (Amersham) as ligand, binding reaction as carried out at room temperature for 40 minutes, and the buffer was washed with cooled PBS. To the buffer was added 50 μl/well of 1M NaOH, and the mixture was stirred. Radioactivity was determined with γ-counter to select CHO/CCR5 cells which specifically bind to the ligand.
The CHO/CCR5 were inoculated on 96 well microplate (5×10^4 cells/well) and cultivated for 24 hours. The medium was removed by means of suction, and to each well was added assay buffer containing Test Compound (1 μM) and then 100 pM of [^125 I]-RANTES (Amersham) as ligand. Binding assay was carried out at room temperature for 30 minutes, and assay buffer was removed by means of suction. Each well was washed twice with cooled PBS, and 200 μl of Microscint-20 (Packard Instrument, Inc.) was added to each well. Radio-activity was determined with Top-Count Micro Scintillation Counter (Packard Instrument, Inc.).
According to the method described above, inhibition rate of Test Compound (whose number is referred to in the following Examples) to CCR5 binding.

HIV-1 [1] = assay: Inhibitory Effect on HIV-1 Infection to MAGI^- CCR5 Cell; format: cell-based, HIV-1 BA-L; details: MAGI-CCR5 cells, 2 days
Experimental: The plasmid where β-galactosidase gene was ligated downstream of HIV-1 LTR was introduced into CD4 positive HeLa cell, to which human CCR5 was further introduced to obtain transformant MAGI^- CCR5. By using said transformant MAGI^- CCR5, degree of HIV-1 infection was calculated from β-galactosidase activity (blue color due to decomposition of 5-bromo-4-chloro-3-indolyl-β-D-galactopyranoside).
Specifically, MAGI-CCR5 cells were suspended in DMEM medium containing 10% serum to prepare 5×10^4 cells/ml suspension. To each well of 96 well plate was inoculated 200 μl of the suspension, and the cells were cultivated at 37° C. overnight. The medium was removed by means of suction, and to the residue was added 100 μl of the above medium containing 1.6μM of Test Compound 96 or 0.064 μM of Test Compound 248 and 100 μl of the above medium containing 300 PFU of HIV-1 BA-L cells. The cells were cultivated at 37° C. for 2 days. The medium was removed by means of suction. To the residue was added 200 μl of cell fixative (PBS containing 1% formaldehyde and 0.2% glutaraldehyde), and the mixture was allowed to stand at room temperature for 5 minutes and washed twice with PBS. […] The number of blue cells was counted by microscope and defined as the number of cells infected with HIV-1.

HIV-1 [2] = assay: Inhibitory Effect on HIV-1 Infection to Human PBMC; format: cell-based, HIV-1 BA-L; details: 7 days, p24 antigen ELISA
Experimental: From normal person human peripheral blood mononuclear cells (PBMC) were separated, and the cells were stimulated with 10 μg/ml of PHA (Phytohemaglutinin) and 20U/ml of interleukin-2 (IL-2) for 3 days. The cells were suspended in RPMI-1640 medium containing 20% serum to prepare 1×10^6 /ml suspension. To the suspension were infected HIV-1 BA-L cells (20 ng as an amount of p24 antigen), and viruses were absorbed at 37° C. for 2 hours. The cells were washed and suspended in RPMI-1640 medium containing 20% serum and IL-2 20 U/ml to prepare 1×10^5 /ml suspension. To the PBMC suspension was added the same amount of a solution which contains 2.0 μM of Test Compound 96 or 0.32 μM of Test Compound 248, and the cells were cultivated at 37° C. for 7 days in carbon dioxide gas incubator. The amount of p24 antigen in supernatant of the cultivated medium was determined by enzyme-linked immunosorbent assay (ELISA) and defined as degree of HIV-1 infection.

SMILES	inhibition at 1 µM (human CCR5) [%]	also measured
Cc1ccc(-c2ccc3c(c2)C=C(C(=O)Nc2ccc(C[N+]4(C)CCCCC4)cc2)CC3)cc1 [Compound 16, 1-methyl-1-[4-[7-(4-methylphenyl)-3,4-dihydronaphthalene-2-carboxamido]benzyl]piperidinium iodide]	88	
Cc1ccc(-c2ccc3c(c2)C=C(C(=O)Nc2ccc(C[N+]4(C)CCCCC4)cc2)CCC3)cc1 [Compound 92, 1-(N-(2-(4-methylphenyl)-6,7-dihydro-5H-benzocycloheptene-8-carbonyl)-4-aminobenzyl)-1-methylpiperidinium iodide]	100	
Cc1ccc(-c2ccc3c(c2)C=C(C(=O)Nc2ccc(C[N+]4(C)CCCCC4)cc2)CCO3)cc1 [Compound 96, 1-(N-(7-(4-methylphenyl)-2,3-dihydro-1-benzoxepin-4carbonyl)-4-aminobenzyl)-1-methylpiperidinium iodide]	93	inhibition rate on HIV-1 infection (HIV-1 [1]; 100 μl medium containing 1.6 μM Test Compound 96 plus 100 μl medium with 300 PFU HIV-1 BA-L): 92%; inhibition rate on HIV-1 infection (HIV-1 [2]; same amount of solution containing 2.0 μM Test Compound 96 added): 96%
Cc1ccc(-c2ccc3c(c2)C=C(C(=O)Nc2ccc(C[N+]4(C)CCCCC4)cc2)CCO3)cc1 [Compound 97, 1-(N-(7-(4-methylphenyl)-2,3-dihydro-1-benzoxepin-4-carbonyl)-4-aminobenzyl)-1-methylpiperidinium chloride]		Inhibition Rate (%) to CCR5 binding (human CCR5): 94%
Cc1ccc(-c2ccc3c(c2)C=C(C(=O)Nc2ccc(CC[N+]4(C)CCCCC4)cc2)CCO3)cc1 [Compound 100, N-((7-(4-methylphenyl)-2,3-dihydro-1-benzoxepin-4-carbonyl)-2-(4-aminophenyl)ethyl)-N-methylpiperidinium iodide]	100	
Cc1ccc(-c2ccc3c(c2)C=C(C(=O)Nc2ccc(CN(C)C4CCOCC4)cc2)CCO3)cc1 [Compound 128, N-(4-(N-methyl-(N-tetrahydropyran-4-yl)aminomethyl)-phenyl)-7-(4-methylphenyl)-2,3-dihydro-1-benzoxepine-4-carboxamide]	87	
CC(C)(C)c1ccc(-c2ccc3c(c2)C=C(C(=O)Nc2ccc(CP4(=O)CCCCC4)cc2)CCO3)cc1 [Compound 180, N-(4-(pentamethylene)phosphorylmethyl-phenyl)-7-(4-tert-butylphenyl)-2,3-dihydro-1-benzoxepine-4-carboxamide]	99	
Cc1ccc(-c2ccc(/C=C/C(=O)Nc3ccc(CP4(=O)CCCCC4)cc3)s2)cc1 [Compound 209, (E)-N-(4-pentamethylenephosphorylmethylphenyl)-3-[5-(4-methylphenyl)-thiophen-2-yl]acrylic amide]	80	
Cc1ccc(-c2ccc3c(c2)C=C(C(=O)Nc2ccc(C[N+](C)(C)C4CCOCC4)cc2)CCC3)cc1 [Compound 248, N,N-dimethyl-N-(4-(((2-(4-methylphenyl)-6,7-dihydro-5H-benzocyclohepten-8-yl)carbonyl)amino)benzyl)-N-(4-tetrahydropyranyl)ammonium chloride]	99	inhibition rate on HIV-1 infection (HIV-1 [1]; 100 μl medium containing 0.064 μM Test Compound 248 plus 100 μl medium with 300 PFU HIV-1 BA-L): 100%; inhibition rate on HIV-1 infection (HIV-1 [2]; same amount of solution containing 0.32 μM Test Compound 248 added): 74%
Cc1ccc(-c2ccc3c(c2)C=C(C(=O)Nc2ccc(C[N+](C)(C)C4CCC(=O)CC4)cc2)CCO3)cc1 [Compound 249, N,N-dimethyl-N-(4-(((7-(4-methylphenyl)-2,3-dihydro-1-benzoxepin-4-yl)carbonyl)amino)benzyl)-N-(4-oxocyclohexyl)ammoniumchloride]	96	
CCOc1ccc(-c2ccc3c(c2)C=C(C(=O)Nc2ccc(C[N+](C)(C)C4CCOCC4)cc2)CCO3)cc1 [Compound 250, N-(4-(((7-(4-ethoxyphenyl)-2,3-dihydro-1-benzoxepin-4-yl)carbonyl)amino)benzyl)-N,N-dimethyl-N-(4-tetrahydropyranyl)ammonium chloride]	96	
Cc1ccc(-c2ccc3c(c2)C=C(C(=O)Nc2ccc(CP4(=O)OCCCO4)cc2)CCO3)cc1 [Reference Example 51, 2-(4-(7-(4-methylphenyl)-2,3-dihydro-1-benzoxepin-4-carbonylamino)benzyl)-1,3,2-dioxaphosphorinane-2-oxide]	73	
